Patent US20230381332A1, “Deuterated Camptothecin Derivative And Antibody-drug Conjugate Thereof” (Baili-Bio (Chengdu) Pharmaceutical Co., Ltd., priority 2020, published 2023)

Experiment: Clearance half-life test of deuterated camptothecin drugs in liver microsomes
Type: in vitro ADME, Human
Procedure: Embodiment 36: Clearance Half-Life Test of Deuterated Camptothecin Drugs
Human liver microsomes (supplied by Xenotech))
1. Add the working solution of the test substance to the liver microsome working solution and pre-incubate at 37° C. for 5 minutes, then add the prepared NADPH working solution and mix well. Make the reaction volume of the incubation system reach 200 μL, and the liver microsomes concentration in the incubation system is 1.0 mg/mL, the test substance concentration is 10 μM. The incubation tube is incubated in a water bath at 37° C. for 120 minutes. In the incubation system of the test substance, total organic solvents (DMSO and acetonitrile or other organic The minimum volume content of the solvent) is <1%, and the DMSO content is <0.1%. All operations are performed on wet ice.
2. For the blank sample, add the corresponding volume of phosphate buffer solution instead of the working solution of the test substance. For the 0 min sample, first add the stop solution and the liver microsome solution and mix well, and then add the working solution of the test substance.
3. At the end of the incubation, add 400 μL of stop solution to terminate the reaction, and remove the incubation sample from the water bath.
4. After the reaction was terminated, the sample was shaken and centrifuged at a centrifugal force of 4700 g for 10 minutes. After centrifugation, 200 μL of the supernatant was pipetted into a 96-well plate and directly used for LC-MS analysis to analyze metabolites and main drug ratio.

[1] = human liver microsomes 1.0 mg/ml, 10 μM test article, NADPH 1.0 mM, 37° C., 120 minutes

| Structure (SMILES) | Ratio of main drug after incubation (human, 120 min, 10 μM) | Ratio of main drug after incubation [1] |
| --- | --- | --- |
| CC[C@@]1(O)C(=O)OCc2c1cc1n(c2=O)Cc2c-1nc1cc(F)c(C)c3c1c2[C@@H](NC(=O)[C@H](O)C(F)(F)F)CC3 [Compound 5, reference compound] | 73% |  |
| [2H]C(O)C(=O)N[C@H]1CCc2c(C)c(F)cc3nc4c(c1c23)Cn1c-4cc2c(c1=O)COC(=O)[C@]2(O)CC (stereo partly drawn) [D-D1] |  | 98% |
| [2H]C(O)(C(=O)N[C@H]1CCc2c(C)c(F)cc3nc4c(c1c23)Cn1c-4cc2c(c1=O)COC(=O)[C@]2(O)CC)C(F)(F)F (stereo partly drawn) [D-D5] | 99% |  |
| CC[C@@]1(O)C(=O)OCc2c1cc1n(c2=O)Cc2c-1nc1cc(F)c(C)c3c1c2[C@@H](NC(=O)[C@@H](O)C1CC1)CC3 [Compound 7, reference compound] | 85% |  |
| [2H]C([2H])([2H])C([2H])(O)C(=O)N[C@H]1CCc2c(C)c(F)cc3nc4c(c1c23)Cn1c-4cc2c(c1=O)COC(=O)[C@]2(O)CC (stereo partly drawn) [D-D11] | 96% |  |
| CC[C@@]1(O)C(=O)OCc2c1cc1n(c2=O)Cc2c-1nc1cc(F)c(C)c3c1c2[C@@H](NC(=O)CO)CC3 [Compound 2, reference compound] |  | 65% |
| [2H]C(C)(O)C(=O)N[C@H]1CCc2c(C)c(F)cc3nc4c(c1c23)Cn1c-4cc2c(c1=O)COC(=O)[C@]2(O)CC (stereo partly drawn) [D-D3] | 97% |  |
| [2H]C(O)(C(=O)N[C@H]1CCc2c(C)c(F)cc3nc4c(c1c23)Cn1c-4cc2c(c1=O)COC(=O)[C@]2(O)CC)C1CC1 (stereo partly drawn) [D-D7] | 96% |  |
| CC[C@@]1(O)C(=O)OCc2c1cc1n(c2=O)Cc2c-1nc1cc(F)c(C)c3c1c2[C@@H](NC(=O)[C@H](C)O)CC3 [Compound 3, reference compound] | 56% |  |
| [2H]C([2H])([2H])N(C(=O)CO)[C@@H]1CCc2c(C)c(F)cc3nc4c(c1c23)Cn1c-4cc2c(c1=O)COC(=O)[C@]2(O)CC [D-D15] | 91% |  |
| [2H]C([2H])([2H])C(O)C(=O)N(C)[C@@H]1CCc2c(C)c(F)cc3nc4c(c1c23)Cn1c-4cc2c(c1=O)COC(=O)[C@]2(O)CC (stereo partly drawn) [D-D19] | 97% |  |
